Data from US20150182550A1, “INHIBITORS OF THE INTERACTION OF THE SIGMA-1 RECEPTOR WITH hERG FOR USE IN THE TREATMENT OF CANCER” (CENTRE NATIONAL DE LA RECHERCHE SCIENTIFIQUE - CNRS, priority 2011, published 2015).

Columns and labels:
hERG channels = assay: Whole-cell patch-clamp of hERG tail currents in K562 cells; settings: 10 μM
Protocol: “Patch-clamp” electrophysiology experiments were carried out in the whole cell configuration. […] This protocol makes it possible to record transient inward currents, the amplitude of which correlates with the depolarization involved during the prepulses. […] (FIGS. 1A,B).
In order to verify a potential interaction between Sig1R and hERG, the effects of selective Sig1R ligands, i.e. igmesine and (+)pentazocine were analyzed with respect to the current. […] The effects of igmesine (10 μM) were then studied on I/V curves recorded at from −70 to 40 mV.
Patch-clamp experiments were then carried out in the K562 shRD and shSig1R cell lines in order to analyze the possible consequences of Sig1R silencing on the properties of hERG.

K562 cells = assay: Adhesion of K562 cells to fibronectin (FN); assay type: cell-based, human; settings: for FN-dependent specific cell adhesion: wild-type K562 cells, 10 μM
Description: FIGS. 8A-8B represents the inhibition of the adhesion of K562 cells to FN by igmesine, E-4031 and Sig1R silencing. […] The values represent the mean±standard error of 6 to 9 independent experiments. NS: not significant (Student's t test). […] The values represent the mean±standard error of 12 independent experiments. ***p<0.001 (Student's t test). In one experiment, each value is the mean of three distinct wells.
The role of the Sig1R/hERG interaction on integrin-dependent cell adhesion to the extracellular matrix (ECM) has been tested in vitro. The expression of a single integrin subtype, i.e. integrin α5β1, has been reported in K562 cells. This integrin has a high affinity for fibronectin (FN), a component of the extracellular matrix (ECM). […] In the wild-type cells, the hERG channel blocker (E-4031) and igmesine inhibited FN-dependent specific cell adhesion. […] Likewise, the Sigma ligands no longer have any effect on the adhesion of the shSig1R cells (not represented).

SMILES | effect of extracellular application on hERG currents (hERG channels; K562 cells) | hERG current reduced by (hERG channels; extracellular application, tail current at −120 mV, K562 cells) [%] | additive effect on adhesion to FN compared with E-4031 alone (K562 cells; E4031+igmesine 10 μM each, K562 cells) | FN-dependent specific cell adhesion (K562 cells) | hERG current reduced by (hERG channels; human) [%] | shift towards the left of the half-activation voltage value (hERG channels; human) [mV]
CC(C)=CCN1CCC2(C)c3cc(O)ccc3CC1C2C (single isomer, unassigned; (+)) [(+)pentazocine] | reversibly inhibited | 21.19±1.77 |  |  |  | 
CCC(C/C=C/c1ccccc1)(c1ccccc1)N(C)CC1CC1 (stereo not shown) [igmesine] |  |  | did not produce an additive effect | inhibited | 40.85±2.83 | ~10
Cc1cccc(CCN2CCC(C(=O)c3ccc(NS(C)(=O)=O)cc3)CC2)n1 [E-4031] |  |  |  | inhibited |  | 
